Values quoted from earlier work, collected in patent US20190365934A1, “METHODS FOR IN VIVO MONITORING OF DO[…] AND EFFICACY OF TREATMENT AGENTS THEREFOR” (LIKEMINDS, INC., priority 2017, published 2019).

Details: background statement on FDA approved SPECT tracer

COC(=O)[C@H]1[C@@H](c2ccc([123I])cc2)C[C@@H]2CC[C@H]1N2CCCF [[^123I]-FP-CIT, [^123I]-2β-carbomethoxy-3β-(4-iodophenyl)-N-(3-fluoropropyl) nortropane]
stable post-injection: 4 h
